Test [1] relates to NCI-H1155 cells. As to the kind of experiment: NSCLC cell viability, CellTiter-Glo, NCI-H1155 cells. The following applies: Homo sapiens, read-out: Cell viability classification (NCI-H1155). It counts as cell-based.
In test [2] the target is GSPT1 (Homo sapiens, UniProt P15170+Q96SW2). It counts as cell-based. Here is the method: GSPT1_HiBIT_HEK293 cells were culture in DMEM medium with 10% FBS under standard tissue culture conditions. […] GSPT1 level was determined in along with the Nano-Glo HiBiT Lytic Detection system [Promega N3050] with final concentration of 1×. The luminescence was normalized to that of DMSO-treated samples. DC50 values were obtained using three-parameter non-linear regressions using Prism (GraphPad).
Sequence of GSPT1 (P15170 whole entry): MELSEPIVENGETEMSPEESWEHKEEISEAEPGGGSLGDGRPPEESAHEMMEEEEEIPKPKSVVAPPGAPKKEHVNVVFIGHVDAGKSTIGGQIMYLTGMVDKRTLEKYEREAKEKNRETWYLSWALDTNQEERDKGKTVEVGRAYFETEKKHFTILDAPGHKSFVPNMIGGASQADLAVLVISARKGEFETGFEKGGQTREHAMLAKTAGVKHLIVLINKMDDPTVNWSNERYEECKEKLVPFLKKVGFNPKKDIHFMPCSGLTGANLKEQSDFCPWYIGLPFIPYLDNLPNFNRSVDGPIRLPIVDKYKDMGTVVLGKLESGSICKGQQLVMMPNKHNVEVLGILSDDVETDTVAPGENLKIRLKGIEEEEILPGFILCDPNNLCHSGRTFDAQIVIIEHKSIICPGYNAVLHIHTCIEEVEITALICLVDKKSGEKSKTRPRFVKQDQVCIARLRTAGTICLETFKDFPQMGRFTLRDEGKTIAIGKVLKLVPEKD
Sequence of GSPT1 (Q96SW2 whole entry): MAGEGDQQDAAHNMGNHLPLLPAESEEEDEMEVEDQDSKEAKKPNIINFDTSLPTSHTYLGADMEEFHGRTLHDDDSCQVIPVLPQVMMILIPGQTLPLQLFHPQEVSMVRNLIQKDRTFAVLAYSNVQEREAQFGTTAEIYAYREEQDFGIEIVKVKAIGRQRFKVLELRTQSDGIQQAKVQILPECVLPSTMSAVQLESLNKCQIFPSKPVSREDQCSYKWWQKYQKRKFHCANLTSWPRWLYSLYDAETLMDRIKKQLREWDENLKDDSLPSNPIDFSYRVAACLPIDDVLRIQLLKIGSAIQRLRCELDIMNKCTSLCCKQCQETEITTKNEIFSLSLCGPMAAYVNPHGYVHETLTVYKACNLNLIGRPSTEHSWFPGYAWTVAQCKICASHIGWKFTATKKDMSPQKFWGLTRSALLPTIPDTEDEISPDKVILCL
Sequence of GSPT1 (Q16531 whole entry partner): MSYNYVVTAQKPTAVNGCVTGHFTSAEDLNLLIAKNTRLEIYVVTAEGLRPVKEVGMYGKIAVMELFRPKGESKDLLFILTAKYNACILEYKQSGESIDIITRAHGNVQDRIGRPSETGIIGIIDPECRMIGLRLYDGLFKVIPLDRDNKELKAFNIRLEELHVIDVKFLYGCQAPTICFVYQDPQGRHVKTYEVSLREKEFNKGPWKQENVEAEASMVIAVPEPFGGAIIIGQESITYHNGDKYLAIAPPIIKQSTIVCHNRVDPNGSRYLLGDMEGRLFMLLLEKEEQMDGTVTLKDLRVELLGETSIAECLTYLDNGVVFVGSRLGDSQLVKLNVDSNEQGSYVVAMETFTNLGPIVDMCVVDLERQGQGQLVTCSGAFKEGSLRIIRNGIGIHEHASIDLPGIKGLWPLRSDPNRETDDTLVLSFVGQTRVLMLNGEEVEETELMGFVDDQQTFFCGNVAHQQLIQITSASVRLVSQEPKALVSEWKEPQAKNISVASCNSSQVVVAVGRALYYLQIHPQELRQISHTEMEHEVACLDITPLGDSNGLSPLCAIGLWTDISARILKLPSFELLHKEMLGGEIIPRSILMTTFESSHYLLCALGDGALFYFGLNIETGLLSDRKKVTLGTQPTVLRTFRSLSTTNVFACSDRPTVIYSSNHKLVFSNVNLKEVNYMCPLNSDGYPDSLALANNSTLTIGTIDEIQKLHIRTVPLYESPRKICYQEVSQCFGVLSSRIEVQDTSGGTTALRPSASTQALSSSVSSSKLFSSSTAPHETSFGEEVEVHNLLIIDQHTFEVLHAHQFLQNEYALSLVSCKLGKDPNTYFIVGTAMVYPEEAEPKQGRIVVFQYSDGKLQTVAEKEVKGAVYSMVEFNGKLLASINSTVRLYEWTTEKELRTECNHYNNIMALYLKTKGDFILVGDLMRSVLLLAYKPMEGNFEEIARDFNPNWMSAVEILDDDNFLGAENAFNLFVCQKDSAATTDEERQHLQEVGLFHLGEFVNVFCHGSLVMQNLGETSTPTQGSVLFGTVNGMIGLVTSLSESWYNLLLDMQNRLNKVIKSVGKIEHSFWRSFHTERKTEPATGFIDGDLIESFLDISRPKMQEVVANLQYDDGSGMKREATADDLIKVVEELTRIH

Setting [3] is: read-out: GSPT1 degradation classification; DC50, GSPT1_HiBIT_HEK293 cells, 16 hours, Nano-Glo HiBiT Lytic Detection.
Where [4] appears, read: NCI-H1155 cells, CellTiter-Glo, 72 hours of treatment.
Setting [5] is: DC50, GSPT1_HiBIT_HEK293 cells, 16 hours, Nano-Glo HiBiT Lytic Detection; read-out: GSPT1 degradation classification.

SMILES strings stand for the structures. Like-named read-outs stand apart in the source and are kept apart here.

In the case of `O=C1CCC(N2Cc3cc(C(=O)N4CC5(C4)CC(F)(c4cccc(F)c4)C5)ccc3C2=O)C(=O)N1` (stereo not shown) [Example 203, 3-(5-(6-fluoro-6-(3-fluorophenyl)-2-azaspiro[3.3]heptane-2-carbonyl)-1-oxoisoindolin-2-yl)piperidine-2,6-dione], in test [1] (NCI-H1155, 72 h), the IC50 fell in the range of 100 to 1000 nM. In test [2] (setting [3]), the DC50 is over 1000 nM.

For `O=C1CCC(N2Cc3cc(C(=O)N4CC5(C4)CC(F)(c4ccccc4F)C5)ccc3C2=O)C(=O)N1` (stereo not shown) [Example 204, 3-(5-(6-fluoro-6-(2-fluorophenyl)-2-azaspiro[3.3]heptane-2-carbonyl)-1-oxoisoindolin-2-yl)piperidine-2,6-dione], the IC50 in test [1] (setting [4]) lay within 100 to 1000 nM. Also, in test [2] (setting [3]), the DC50 was in the range of 100 to 300 nM.

Take `O=C1CCC(N2Cc3cc(C(=O)N4CC5(CC(c6ccc(F)cc6)C5)C4)ccc3C2=O)C(=O)N1` (stereo not shown) [Example 205, 3-(5-(6-(4-fluorophenyl)-2-azaspiro[3.3]heptane-2-carbonyl)-1-oxoisoindolin-2-yl)piperidine-2,6-dione]: in test [1] (setting [4]), the IC50 was 10 to 100 nM. Further, the DC50 in test [2] (setting [5]) lay within 100 to 300 nM.

For the compound `O=C1CCC(c2nc3ccc(C(=O)N4CC5(C=C(c6ccc(F)cc6)C5)C4)cc3o2)C(=O)N1` (stereo not shown) [Example 206, 3-(6-(6-(4-fluorophenyl)-2-azaspiro[3.3]hept-5-ene-2-carbonyl)benzo[d]oxazol-2-yl)piperidine-2,6-dione], the IC50 in test [1] (setting [4]) was over 1000 nM. The DC50 in test [2] (setting [5]) was over 1000 nM.

In the case of `O=C1CCC(N2Cc3cc(C(=O)N4CC5(C=C(c6cccc(F)c6)C5)C4)ccc3C2=O)C(=O)N1` (stereo not shown) [Example 207, 3-(5-(6-(3-fluorophenyl)-2-azaspiro[3.3]hept-5-ene-2-carbonyl)-1-oxoisoindolin-2-yl)piperidine-2,6-dione], in test [1] (setting [4]), the IC50 was 10 to 100 nM. Besides, in test [2] (setting [3]), the DC50 was under 100 nM.

Turning to `O=C1CCC(N2Cc3cc(C(=O)N4CC5(C=C(c6ccccc6F)C5)C4)ccc3C2=O)C(=O)N1` (stereo not shown) [Example 208, 3-(5-(6-(2-fluorophenyl)-2-azaspiro[3.3]hept-5-ene-2-carbonyl)-1-oxoisoindolin-2-yl)piperidine-2,6-dione], in test [1] (setting [4]), the IC50 was under 10 nM. Besides, the DC50 in test [2] (setting [3]) is under 100 nM.

On to `O=C1CCC(N2Cc3cc(C(=O)N4CC5(C=C(c6ccc(C(F)(F)F)cc6)C5)C4)ccc3C2=O)C(=O)N1` (stereo not shown) [Example 209, 3-(1-oxo-5-(6-(4-(trifluoromethyl)phenyl)-2-azaspiro[3.3]hept-5-ene-2-carbonyl)isoindolin-2-yl)piperidine-2,6-dione], for which the IC50 in test [1] (setting [4]) was under 10 nM. Further, the DC50 in test [2] (setting [3]) is under 100 nM.

Regarding `O=C1CCC(c2nc3ccc(C(=O)N4Cc5c(F)ccc(OC(F)(F)F)c5C4)cc3o2)C(=O)N1` (stereo not shown) [Example 210, 3-(6-(4-fluoro-7-(trifluoromethoxy)isoindoline-2-carbonyl)benzo[d]oxazol-2-yl)piperidine-2,6-dione], the IC50 in test [1] (setting [4]) was over 1000 nM. The DC50 in test [2] (setting [5]) was over 1000 nM.

In the case of `O=C1CCC(c2nc3ccc(C(=O)N4Cc5cccc(F)c5C45CC5)cc3o2)C(=O)N1` (stereo not shown) [Example 211, 3-(6-(7′-fluorospiro[cyclopropane-1,1′-isoindoline]-2′-carbonyl)benzo[d]oxazol-2-yl)piperidine-2,6-dione], in test [1] (setting [4]), the IC50 lay within 100 to 1000 nM. Also, in test [2] (setting [5]), the DC50 is over 1000 nM.

In the case of `O=C1CCC(N2Cc3cc(C(=O)NC4CC5(C4)CC(c4ccc(F)c(F)c4)C5)ccc3C2=O)C(=O)N1` (stereo not shown) [Example 217, N-(6-(3,4-difluorophenyl)spiro[3.3]heptan-2-yl)-2-(2,6-dioxopiperidin-3-yl)-1-oxoisoindoline-5-carboxamide], in test [1] (setting [4]), the IC50 was 10 to 100 nM. Besides, in test [2] (setting [5]), the DC50 was in the range of 100 to 300 nM.

For `O=C1CCC(N2Cc3cc(C(=O)NC4CC5(C4)CC(c4ccc(F)cc4F)C5)ccc3C2=O)C(=O)N1` (stereo not shown) [Example 218, N-(6-(2,4-difluorophenyl)spiro[3.3]heptan-2-yl)-2-(2,6-dioxopiperidin-3-yl)-1-oxoisoindoline-5-carboxamide], in test [1] (setting [4]), the IC50 was under 10 nM. For the same compound, in test [2] (setting [5]), the DC50 is under 100 nM.

As for `N#Cc1ccc(C2CC3(CC(NC(=O)c4ccc5c(c4)CN(C4CCC(=O)NC4=O)C5=O)C3)C2)cc1` (stereo not shown) [Example 219, N-(6-(4-cyanophenyl)spiro[3.3]heptan-2-yl)-2-(2,6-dioxopiperidin-3-yl)-1-oxoisoindoline-5-carboxamide], the IC50 in test [1] (setting [4]) fell in the range of 10 to 100 nM. The DC50 in test [2] (setting [5]) was 100 to 300 nM.

Regarding `O=C1CCC(N2Cc3cc(C(=O)NC4CC5(C4)CC(c4ccc(C(F)(F)F)cc4)C5)ccc3C2=O)C(=O)N1` (stereo not shown) [Example 226, 2-(2,6-dioxopiperidin-3-yl)-1-oxo-N-(6-(4-(trifluoromethyl)phenyl)spiro[3.3]heptan-2-yl)isoindoline-5-carboxamide], the IC50 in test [1] (setting [4]) lay in the range of 10 to 100 nM. Besides, the DC50 in test [2] (setting [5]) is 100 to 300 nM.

For `Cc1ccc(C2CC3(CC(NC(=O)c4ccc5c(c4)CN(C4CCC(=O)NC4=O)C5=O)C3)C2)cc1` (stereo not shown) [Example 227, 2-(2,6-dioxopiperidin-3-yl)-1-oxo-N-(6-(p-tolyl)spiro[3.3]heptan-2-yl)isoindoline-5-carboxamide], the IC50 in test [1] (setting [4]) was under 10 nM. Further, the DC50 in test [2] (setting [3]) is under 100 nM.

Take `O=C1CCC(N2Cc3cc(C(=O)N4CC5(CC(c6ccc(C(F)(F)F)cc6)C5)C4)ccc3C2=O)C(=O)N1` (stereo not shown) [Example 230, 3-(1-oxo-5-(6-(4-(trifluoromethyl)phenyl)-2-azaspiro[3.3]heptane-2-carbonyl)isoindolin-2-yl)piperidine-2,6-dione]: the IC50 in test [1] (setting [4]) is under 10 nM. Moreover, the DC50 in test [2] (setting [5]) was under 100 nM.

With `Cc1ccc(C2CC3(C2)CN(C(=O)c2ccc4c(c2)CN(C2CCC(=O)NC2=O)C4=O)C3)cc1` (stereo not shown) [Example 231, 3-(1-oxo-5-(6-(p-tolyl)-2-azaspiro[3.3]heptane-2-carbonyl)isoindolin-2-yl)piperidine-2,6-dione], the IC50 in test [1] (setting [4]) was under 10 nM. Also, in test [2] (setting [5]), the DC50 is under 100 nM.

With `O=C1CCC(N2Cc3cc(C(=O)N4CC5(C=C(c6ccc(F)cc6F)C5)C4)ccc3C2=O)C(=O)N1` (stereo not shown) [Example 235], the IC50 in test [1] (setting [4]) was under 10 nM. Besides, the DC50 in test [2] (setting [3]) was under 100 nM.

For `Cc1ccc(C2=CC3(C2)CN(C(=O)c2ccc4c(c2)CN(C2CCC(=O)NC2=O)C4=O)C3)cc1` (stereo not shown) [Example 236, 3-(1-oxo-5-(6-(p-tolyl)-2-azaspiro[3.3]hept-5-ene-2-carbonyl)isoindolin-2-yl)piperidine-2,6-dione], in test [1] (setting [4]), the IC50 was under 10 nM. Also, the DC50 in test [2] (setting [3]) is under 100 nM.

As for `O=C1CCC(N2Cc3cc(C(=O)N4CC5(C=C(c6ccc(C(F)(F)F)c(F)c6)C5)C4)ccc3C2=O)C(=O)N1` (stereo not shown) [Example 240, 3-(5-(6-(3-fluoro-4-(trifluoromethyl)phenyl)-2-azaspiro[3.3]hept-5-ene-2-carbonyl)-1-oxoisoindolin-2-yl)piperidine-2,6-dione], the IC50 in test [1] (setting [4]) is under 10 nM. For the same compound, the DC50 in test [2] (setting [3]) is under 100 nM.

In the case of `O=C1CCC(N2Cc3cc(C(=O)N4CC5(C=C(c6ccc(C(F)(F)F)cc6F)C5)C4)ccc3C2=O)C(=O)N1` (stereo not shown) [Example 241, 3-(5-(6-(2-fluoro-4-(trifluoromethyl)phenyl)-2-azaspiro[3.3]hept-5-ene-2-carbonyl)-1-oxoisoindolin-2-yl)piperidine-2,6-dione], the IC50 in test [1] (setting [4]) lay in the range of 10 to 100 nM. The DC50 in test [2] (setting [3]) is under 100 nM.

As for `O=C1CCC(N2Cc3cc(C(=O)NC4CC5(C=C(c6ccc(F)cc6F)C5)C4)c(F)cc3C2=O)C(=O)N1` (stereo not shown) [Example 254, N-(6-(2,4-difluorophenyl)spiro[3.3]hept-5-en-2-yl)-2-(2,6-dioxopiperidin-3-yl)-6-fluoro-1-oxoisoindoline-5-carboxamide], the IC50 in test [1] (setting [4]) lay in the range of 10 to 100 nM. In test [2] (setting [5]), the DC50 was 100 to 300 nM.

`O=C1CCC(N2Cc3cc(C(=O)NC4CC5(C4)CC(c4ccc(F)cc4F)C5)c(F)cc3C2=O)C(=O)N1` (stereo not shown) [Example 255, N-(6-(2,4-difluorophenyl)spiro[3.3]heptan-2-yl)-2-(2,6-dioxopiperidin-3-yl)-6-fluoro-1-oxoisoindoline-5-carboxamide]: the IC50 in test [1] (setting [4]) fell in the range of 10 to 100 nM. The DC50 in test [2] (setting [5]) is under 100 nM.

`O=C1CCC(N2Cc3cc(C(=O)NC4CC5(C4)CC(c4ccc(C(F)(F)F)cc4F)C5)ccc3C2=O)C(=O)N1` (stereo not shown) [Example 258, 2-(2,6-dioxopiperidin-3-yl)-N-(6-(2-fluoro-4-(trifluoromethyl)phenyl)spiro[3.3]heptan-2-yl)-1-oxoisoindoline-5-carboxamide]: in test [1] (setting [4]), the IC50 was 100 to 1000 nM. Further, the DC50 in test [2] (setting [5]) is 100 to 300 nM.

Take `O=C1CCC(N2Cc3cc(C(=O)N4Cc5c(Cl)ccc(C(F)(F)F)c5C4)ccc3C2=O)C(=O)N1` (stereo not shown) [Example 261, 3-(5-(4-chloro-7-(trifluoromethyl)isoindoline-2-carbonyl)-1-oxoisoindolin-2-yl)piperidine-2,6-dione]: in test [1] (setting [4]), the IC50 fell in the range of 10 to 100 nM. Moreover, the DC50 in test [2] (setting [3]) is 100 to 300 nM.

`O=C1CCC(N2Cc3cc(C(=O)N4Cc5ccc(OC(F)(F)F)c(F)c5C4)ccc3C2=O)C(=O)N1` (stereo not shown) [Example 263, 3-(5-(4-fluoro-5-(trifluoromethoxy)isoindoline-2-carbonyl)-1-oxoisoindolin-2-yl)piperidine-2,6-dione]: the IC50 in test [1] (setting [4]) was in the range of 10 to 100 nM. Besides, the DC50 in test [2] (setting [3]) was in the range of 100 to 300 nM.

`O=C1CCC(N2Cc3cc(C(=O)N4Cc5cc(F)cc(C(F)(F)F)c5C4)ccc3C2=O)C(=O)N1` (stereo not shown) [Example 264, 3-(5-(6-fluoro-4-(trifluoromethyl)isoindoline-2-carbonyl)-1-oxoisoindolin-2-yl)piperidine-2,6-dione]: the IC50 in test [1] (setting [4]) was 10 to 100 nM. In addition, the DC50 in test [2] (setting [3]) is under 100 nM.
